This note sets out measurements from patent publication US7772262B2, “Substituted benzoylguanidines, method for production and use thereof as medicament or diagnostic and medicament comprising the same” (sanofi-aventis Deutschland GmbH, priority 2004, dated 2010).

The structures appear in SMILES notation. Where a name gives a salt, the structure may show the parent alone.

One data set deals with T1, human NHE-1 (Homo sapiens, UniProt P19634).
T1 construct: expressed in transfected cells
T1 sequence (P19634 whole entry): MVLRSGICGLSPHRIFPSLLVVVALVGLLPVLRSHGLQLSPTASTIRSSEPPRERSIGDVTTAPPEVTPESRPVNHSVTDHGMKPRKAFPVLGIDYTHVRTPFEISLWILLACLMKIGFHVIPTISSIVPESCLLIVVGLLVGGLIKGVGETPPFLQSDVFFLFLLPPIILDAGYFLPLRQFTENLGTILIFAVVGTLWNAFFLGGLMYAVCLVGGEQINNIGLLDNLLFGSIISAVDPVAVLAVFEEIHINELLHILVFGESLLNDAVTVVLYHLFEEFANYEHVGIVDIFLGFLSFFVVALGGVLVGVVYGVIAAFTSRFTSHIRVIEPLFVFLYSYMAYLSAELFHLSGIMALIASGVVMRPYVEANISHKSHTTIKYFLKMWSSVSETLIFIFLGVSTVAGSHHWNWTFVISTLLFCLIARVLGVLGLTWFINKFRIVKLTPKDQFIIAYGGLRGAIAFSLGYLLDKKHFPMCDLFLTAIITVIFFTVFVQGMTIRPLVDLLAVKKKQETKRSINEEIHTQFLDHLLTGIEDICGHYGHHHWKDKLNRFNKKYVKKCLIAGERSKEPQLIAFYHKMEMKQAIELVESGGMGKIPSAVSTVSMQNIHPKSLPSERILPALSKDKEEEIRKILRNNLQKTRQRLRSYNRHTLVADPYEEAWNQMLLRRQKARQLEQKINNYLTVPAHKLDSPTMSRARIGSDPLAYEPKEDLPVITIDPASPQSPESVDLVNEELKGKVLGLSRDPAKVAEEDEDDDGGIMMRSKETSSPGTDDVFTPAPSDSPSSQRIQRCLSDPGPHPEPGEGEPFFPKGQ
Nature of the data set: NHE-1 inhibition, FLIPR assay of pHi recovery in transfected cell lines. Type of data set: cell-based. The note with it: transfected LAP-1 cell line expressing human NHE-1, read-out: NHE1 inhibition IC50. The procedure:
Determination of the NHE Inhibition
The inhibitory concentration IC50 for NHE-1 inhibition was determined as follows:
IC50 for NHE-1 inhibition was determined in an FLIPR assay by measurement of the pHi recovery in transfected cell lines which express human NHE-1.
The assay was carried out in an FLIPR (fluorometric imaging plate reader) with black-walled 96-well microtiter plates with clear bases.
The growth medium for the transfected cells (Iscove+10% fetal calf serum) additionally contained G418 as selection antibiotic in order to ensure the presence of the transfected sequences.
The actual assay started with the removal of the growth medium and addition of 100 μl of loading buffer per well (5 μM BCECF-AM [2′,7′-bis(carboxyethyl)-5- (and -6-)carboxyfluorescein, acetoxymethyl ester] in 20 mM NH4Cl, 115 mM choline chloride, 1 mM MgCl2, 1 mM CaCl2, 5 mM KCl, 20 mM HEPES, 5 mM glucose; pH 7.4 [adjusted with KOH]). The cells were then incubated at 37° C. for 20 minutes. This incubation led to loading of the cells with the fluorescent dye whose fluorescence intensity depends on pHi, and with NH4Cl which made the cells slightly alkaline.
The nonfluorescent dye precursor BCECF-AM is, as ester, membrane-permeable. The actual dye BCECF is not membrane-permeable but is liberated inside cells by esterases.
After this incubation for 20 minutes, the loading buffer which contained NH4Cl and free BCECF-AM was removed by washing three times in a cell washer (Tecan Columbus) with in each case 400 μl of washing buffer (133.8 mM choline chloride, 4.7 mM KCl, 1.25 mM MgCl2, 1.25 mM CaCl2, 0.97 mM K2HPO4, 0.23 mM KH2PO4, 5 mM HEPES, 5 mM glucose pH 7.4 [adjusted with KOH]). The residual volume which remained in the wells was 90 μl (50-125 μl possible). This washing step removed the free BCECF-AM and resulted, as a consequence of the removal of the external NH4^+ ions, in intracellular acidification (˜pHi 6.3-6.4).
This may eventually lead to cell death if it persists long enough.
It was important at this point that the washing buffer was sodium-free (<1 mM) because extracellular sodium ions would lead to an instantaneous recovery of the pHi through the activity of the cloned NHE isoforms. It was likewise important for all the buffers used (loading buffer, washing buffer, recovery buffer) not to contain any HCO3^− ions, because the presence of bicarbonate would lead to activation of interfering bicarbonate-dependent pHi regulatory systems present in the parental LAP-1 cell line.
The microtiter plates with the acidified cells were then (up to 20 minutes after the acidification) transferred to the FLIPR. In the FLIPR, the intracellular fluorescent dye was excited by light with a wavelength of 488 nm generated by an argon laser, and the measured parameters (laser power, illumination time and aperture of the CCD camera incorporated in the FLIPR) were chosen so that the average fluorescence signal per well was between 30 000 and 35 000 relative fluorescence units.
The actual measurement in the FLIPR started with a photograph being taken by the CCD camera every two seconds under software control. After ten seconds, the recovery of the intracellular pH was initiated by adding 90 μl of recovery buffer (133.8 mM NaCl, 4.7 mM KCl, 1.25 mM MgCl2, 1.25 mM CaCl2, 0.97 mM K2HPO4, 0.23 mM KH2PO4, 10 mM HEPES, 5 mM glucose; pH 7.4 [adjusted with NaOH]) by means of the 96-well pipettor incorporated in the FLIPR.
Positive control wells (100% NHE activity) were those to which pure recovery buffer is added, while negative controls (0% NHE activity) received washing buffer. Recovery buffer with twice the concentration of test substance was added to all the other wells. Measurement in the FLIPR terminated after 60 measurements (two minutes).
The raw data are exported into the ActivityBase program. This program firstly calculates the NHE activities for each tested substance concentration and, from these, the IC50 values for the substances. […]
A word on the IC50: it is the concentration at which inhibition is half-maximal. Take `Cc1cc(N2CC(c3ccccc3)CS2(=O)=O)c(S(C)(=O)=O)cc1C(=O)N=C(N)N` (single isomer, unassigned; enantiomer a) [Example 5, N-[4-(1,1-Dioxo-4-phenylisothiazolidin-2-yl)-5-methanesulfonyl-2-methylbenzoyl]guanidine, hydrochloride, enantiomer A]: the IC50 stood at 13 nM.

On to `Cc1cc(N2CC(c3ccc(F)cc3)CS2(=O)=O)c(S(C)(=O)=O)cc1C(=O)N=C(N)N` (single isomer, unassigned; enantiomer a) [Example 8, N-{4-[4-(4-Fluorophenyl)-1,1-dioxoisothiazolidin-2-yl]-5-methanesulfonyl-2-methlbenzoyl}guanidine, hydrochloride, enantiomer A], for which the IC50 was 12 nM. On the same count and under the same terms, the figure for `Cc1cc(N2CC(c3ccccc3)CS2(=O)=O)c(S(C)(=O)=O)cc1C(=O)N=C(N)N` (single isomer, unassigned; enantiomer b) [Example 6, N-[4-(1,1-Dioxo-4-phenylisothiazolidin-2-yl)-5-methanesulfonyl-2-methylbenzoyl]guanidine, hydrochloride, enantiomer B] is 45 nM. The same measure, in the same setting: then `Cc1cc(N2CC(c3ccc(F)cc3)CS2(=O)=O)c(S(C)(=O)=O)cc1C(=O)N=C(N)N.Cl` (single isomer, unassigned; enantiomer b) [Example 9, N-{4-[4-(4-Fluorophenyl)-1,1-dioxoisothiazolidin-2-yl]-5-methanesulfonyl-2-methylbenzoyl}guanidine, hydrochloride, enantiomer B], with 23 nM.

As for `Cc1cc(N2CCCS2(=O)=O)c(S(C)(=O)=O)cc1C(=O)N=C(N)N` [Example 1, N-[4-(1,1-Dioxoisothiazolidin-2-yl)-5-methanesulfonyl-2-methyl-benzoyl]guanidine], the 50% inhibitory concentration (IC50) is 38 nM.

Turning to `Cc1cc(N2CCCCS2(=O)=O)c(S(C)(=O)=O)cc1C(=O)N=C(N)N` [Example 2, N-[4-(1,1-Dioxo-[1,2]thiazinan-2-yl)-5-methanesulfonyl-2-methylbenzoyl]guanidine], the IC50 was determined as 144 nM. As to `Cc1cc(N2C(C)(C)CCS2(=O)=O)c(S(C)(=O)=O)cc1C(=O)N=C(N)N` [Example 3, N-[4-(3,3-Dimethyl-1,1-dioxoisothiazolidin-2-yl)-5-methanesulfonyl-2-methylbenzoyl]guanidine,], the IC50 came to 195 nM. Still for that read-out and setting: the figure for `Cc1cc(N2CC(c3ccccc3)CS2(=O)=O)c(S(C)(=O)=O)cc1C(=O)N=C(N)N` (stereo not shown) [Example 4, N-[4-(1,1-Dioxo-4-phenylisothiazolidin-2-yl)-5-methanesulfonyl-2-methylbenzoyl]guanidine, hydrochloride] is 6 nM; for `Cc1cc(N2CC(c3ccc(F)cc3)CS2(=O)=O)c(S(C)(=O)=O)cc1C(=O)N=C(N)N` (stereo not shown) [Example 7, N-{4-[4-(4-Fluorophenyl)-1,1-dioxoisothiazolidin-2-yl]-5-methanesulfonyl-2-methylbenzoyl}guanidine, hydrochloride] it is 19 nM.

As for `Cc1cc(N2CC(c3ccccc3)CCS2(=O)=O)c(S(C)(=O)=O)cc1C(=O)N=C(N)N` (stereo not shown) [Example 10, N-[4-(1,1-Dioxo-4-phenyl-1-[1,2]thiazinan-2-yl)-5-methanesulfonyl-2-methylbenzoyl]guanidine], the IC50 is 51 nM. Consider `Cc1cc(N2CCN(C3CC3)S2(=O)=O)c(S(C)(=O)=O)cc1C(=O)N=C(N)N` [Example 11, N-[4-(5-Cyclopropyl-1,1-dioxo-1-[1,2,5]thiadiazolidin-2-yl)-5-methanesulfonyl-2-methlbenzoyl]guanidine], for which the 50% inhibitory concentration (IC50) is 113 nM. With `Cc1cc(N2CCCN(C3CC3)S2(=O)=O)c(S(C)(=O)=O)cc1C(=O)N=C(N)N` [Example 12, N-[4-(6-Cyclopropyl-1,1-dioxo-1-[1,2,6]thiadiazinan-2-yl)-5-methanesulfonyl-2-methlbenzoyl]guanidine], the IC50 was found to be 1520 nM. `NC(N)=NC(=O)c1ccc(N2CCCS2(=O)=O)c(C(F)(F)F)c1` [Example 13, N-[4-(1,1-Dioxo-1-isothiazolidin-2-yl)-3-trifluoromethyl-benzoyl]guanidine]: the IC50 was 20 nM. On the same count and under the same terms, the figure for `NC(N)=NC(=O)c1ccc(N2CCCCS2(=O)=O)c(C(F)(F)F)c1` [Example 14, N-[4-(1,1-Dioxo-1-[1,2]thiazinan-2-yl)-3-trifluoromethyl-benzoyl]guanidine] is 13 nM.

Test system in another data set: not listed separately
Nature of the data set: In vivo pharmacokinetics, "n in one method", i.v. bolus in beagle dog. The note with it: iv; fasting male beagle dog, single i.v. bolus into jugular vein, about 1 mg/kg, plasma, co-administered (n in one). The procedure: In vivo pharmacokinetics—profiling with the “n in one method”
The exposure data and the half-life were determined as characteristic pharmacokinetic data as follows:
The NHE-1 inhibitor of Example 9 of the invention and, as reference substance, the known NHE-1 inhibitor cariporide with the formula
[drawing 23] were dissolved in an aqueous, slightly acidic medium (water, pH 4, adjusted with 1M hydrochloric acid). The concentration of the aqueous formulation prepared in this way was about 1.5 mg of each substance per 1 g of solution. 10 ml of this formulation were administered as a single bolus by catheter into the jugular vein of a fasting male beagle dog (dose about 1 mg of each substance administered per kg of the dog's body weight). […]
The plasma samples were worked up and, after an HPLC separation, quantified by MS/MS. […] The exposures could be calculated using the WinNonlin computer program from the concentration-time plots (see FIG. 1) and compared with the exposure of the known NHE-1 reference substance. Since the various substances were measured in the same animal at the same time, the result was an accurate comparison of the compounds, and a ranking of the volumes of distribution was possible.
A word on the half-life: it is how long it takes for the measured level to halve. Regarding `Cc1cc(N2CC(c3ccc(F)cc3)CS2(=O)=O)c(S(C)(=O)=O)cc1C(=O)N=C(N)N.Cl` (single isomer, unassigned; enantiomer b) [Example 9, N-{4-[4-(4-Fluorophenyl)-1,1-dioxoisothiazolidin-2-yl]-5-methanesulfonyl-2-methylbenzoyl}guanidine, hydrochloride, enantiomer B], the half-life is 4.6 h. For the compound `CC(C)c1ccc(C(=O)N=C(N)N)cc1S(C)(=O)=O.CS(=O)(=O)O` [cariporide, reference compound], the half-life was 3.3 h.
